Source: US10105365B2, “Solid antiviral dosage forms” (AbbVie Inc., priority 2014, dated 2018)

How the values were obtained:
[1] = Human pharmacokinetic study, Example 5 Arm II (multiple dose, crossover); type: in vivo; conditions: Example 5 Arm II; for AUC: read-out: AUC24, geometric mean; for concentration at 24 h: read-out: C24, geometric mean; for Cmax: read-out: Cmax, geometric mean
Method: (§1) A Phase 1, non-fasting, open-label, two-arm, four-period, randomized, crossover study was conducted to compare and characterize the pharmacokinetics of (i) Triple Tablet when co-administered with Single Tablet, and (ii) Formulation C5-12 as discussed below. Part 1 was a single dose, two-treatment, randomized, four period, two sequence replicated crossover study with 88 subjects. Doses in the four periods were separated by at least 10 days. Part 2 was a multiple-dose, two-treatment, two period, randomized crossover study with 66 subjects. Dosing in each period was 14 days and doses in the two periods were separated by at least 10 days.
(§2) Adult male and female subjects in general good health were selected to participate in the study according to the selection criteria. Subjects meeting the selection criteria were randomly assigned to one of the sequences of Regimens A and B (four sequences for Arm I and two sequences for Arm II) as shown below in Table 5-A.
(§3) Study drug was administered as provided below in Table 5-B.
(§4) Each study regimen was taken orally with approximately 240 mL of water approximately 30 minutes after the start of standardized breakfast. Study regimens were administered orally in the morning on Study Day 1 of each period. Serial blood samples for pharmacokinetic analysis were collected 72 hours after dosing in each period.

[2] = Sink Conditions dissolution testing of Formulation C5-12; type: physicochemical; conditions: N = 6
Method: The release profiles of Formulation C5-12 of Example 1 were evaluated in a Sink Conditions dissolution study. The study was conducted in 900 mL of dissolution medium using a standard USP dissolution Apparatus 2 (paddle) operating at 100 RPM at 37±0.5° C. The dissolution medium was a 0.05 M sodium phosphate buffer pH 6.8 with 15 mM cTAB as a surfactant.

[3] = Human pharmacokinetic study, Example 4 Arm III (14-day multiple dose, steady state); type: in vivo
[4] = Human pharmacokinetic study, Example 5 Arm I (single dose, replicated crossover); type: in vivo
Method: as §1, §2, §3, §4
Tables 5-C, 5-D, 5-E, and 5-F below report the Arm I pharmacokinetic data for Formulation C5-12 (separately reported for each of Compounds 1, 2, 3, and 4). Table 5-G presents the results of a relative bioavailability and 90% confidence interval analysis of the pharmacokinetic data for Formulation C5-12 relative to the reference regimen. The data presented in Tables 5-C through 5-G are preliminary data and are subject to database lock and final data verification by the statistician.

[5] = Solubility (general statement); type: physicochemical; conditions: aqueous
[6] = Human pharmacokinetic study, Example 4 Arm II (single dose, crossover); type: in vivo; conditions: both sexes, human, oral, Example 4 Arm II, single dose, non-fasting, N = 13; for half-life / AUC(0-t) / AUC(0-inf) / Tmax: blood; for AUC(0-t): read-out: AUCt, geometric mean; for AUC(0-inf): read-out: AUC∞, geometric mean; for Tmax: read-out: Tmax; for concentration at 24 h / Cmax: in vivo; for concentration at 24 h: read-out: C24, geometric mean; for Cmax: read-out: Cmax, geometric mean
Method: Formulation C5-12 and a second formulation were tested in Arm II of the study. Adult male and female subjects (N=30 for combined Arm I and Arm II studies) in general good health were selected to participate in the study according to the selection criteria. Subjects meeting the selection criteria were randomly assigned to one of the Regimen sequences as shown below in Table 4-A.
Study drug was administered as provided below in Table 4-B.
as §4, with “each period. For Regimen A the evening dose of the Single Tablet was taken orally with approximately 240 mL of water approximately 30 minutes after the start of the evening snack. Serial blood” for “each period. Serial blood”
The data presented in Tables 4-C through 4-G are preliminary data and are subject to database lock and final data verification.

[7] = multiple dose 14 days, non-fasting, Regimen B (reference regimen): two Triple Tablets + one Single Tablet morning, one Single Tablet evening, N = 63
[8] = Formulation C5-12 relative to the reference regimen
[9] = both sexes, human, blood, oral, 3 film-coated Formulation C5-12 tablets daily, multiple dose 14 days, non-fasting, Regimen A (C5-12): three film-coated Formulation C5-12 tablets daily, N = 63
[10] = both sexes, human, blood, oral, multiple dose 14 days, non-fasting, Regimen B (reference regimen): two Triple Tablets + one Single Tablet morning, one Single Tablet evening, N = 63
[11] = Formulation C5-12, Day 14 versus Day 1
[12] = human, in vivo, oral, 3 Formulation C5-12 tablets daily, three Formulation C5-12 tablets daily for 14 days, non-fasting, Day 14, N = 14
[13] = 3 Formulation C5-12 tablets, Regimen E (C5-12): three Formulation C5-12 tablets in the morning
[14] = Regimen A (reference regimen): two Triple Tablets + one Single Tablet morning, one Single Tablet evening

Cc1cnc(C(=O)N[C@H]2CCCCC/C=C\[C@@H]3C[C@@]3(C(=O)NS(=O)(=O)C3CC3)NC(=O)[C@@H]3C[C@@H](Oc4nc5ccccc5c5ccccc45)CN3C2=O)cn1 [Compound 1, (2R,6S,13aS,14aR,16aS,Z)-N-(cyclopropylsulfonyl)-6-(5-methylpyrazine-2-carboxamido)-5,16-dioxo-2-(phenanthridin-6-yloxy)-1,2,3,5,6,7,8,9,10,11,13a,14,14a,15,16,16a-hexadecahydrocyclopropa[e]pyrrolo[1,2-a][1,4]diazacyclopentadecine-14a-carboxamide]
β, geometric mean ([1]; multiple dose 14 days, non-fasting, Regimen A (C5-12): three film-coated Formulation C5-12 tablets daily, N = 63): 0.129 h⁻¹
Tmax, first value (geometric mean) [1, 7]: 4.0 h
β, geometric mean [1, 7]: 0.128 h⁻¹
Exposures (C24,ss and AUC24,ss) versus the reference regimen ([1]; Formulation C5-12, point estimate and 90% confidence interval for the GMR within 0.80-1.25): bioequivalent
Cmax,ss lower than Cmax,ss for the reference regimen [1, 8]: 27%
half-life [1, 9]: 5.2 h
AUC [1, 9]: 8900 ng·h/mL
concentration at 24 h [1, 9]: 34.6 ng/mL
Cmax [1, 9]: 1500 ng/mL
Tmax ([1]; both sexes, human, blood, oral, 3 film-coated Formulation C5-12 tablets daily, multiple dose 14 days, non-fasting, Regimen A (C5-12): three film-coated Formulation C5-12 tablets daily, N = 63, read-out: Tmax, first value (geometric mean)): 5 h
half-life [1, 10]: 5.3 h
AUC [1, 10]: 9240 ng·h/mL
concentration at 24 h [1, 10]: 30.4 ng/mL
Cmax [1, 10]: 1950 ng/mL
bioavailability at 24 h ([1]; both sexes, human, blood, oral, Regimen A (C5-12) vs. B (reference regimen), read-out: Relative bioavailability, C24, point estimate): 106%
% Released ([2]; 1 hour, 900 mL 0.05 M sodium phosphate buffer pH 6.8, 15 mM cTAB, USP Apparatus 2, 100 RPM, 37 °C): 54%
% Released ([2]; 4 hours, pH 6.8 buffer, 15 mM cTAB): 98%
% Released ([2]; 6 hours, pH 6.8 buffer, 15 mM cTAB): 99%
% Released ([2]; 8 hours, pH 6.8 buffer, 15 mM cTAB): 102%
% Released ([2]; 12 hours, pH 6.8 buffer, 15 mM cTAB): 102%
% Released ([2]; 16 hours, pH 6.8 buffer, 15 mM cTAB): 101%
AUC24, RATIO [3, 11]: 2.28
C24, RATIO [3, 11]: 1.00
Cmax, RATIO [3, 11]: 2.52
Tmax ([3]; human, in vivo, oral, 3 Formulation C5-12 tablets daily, three Formulation C5-12 tablets daily for 14 days, non-fasting, Day 1, N = 14): 6.7 h
AUC ([3]; human, in vivo, oral, 3 Formulation C5-12 tablets daily, three Formulation C5-12 tablets daily for 14 days, non-fasting, Day 1, N = 14, read-out: AUC24, geometric mean): 4640 ng·h/mL
concentration at 24 h ([3]; human, in vivo, oral, 3 Formulation C5-12 tablets daily, three Formulation C5-12 tablets daily for 14 days, non-fasting, Day 1, N = 14, read-out: C24, geometric mean): 33.7 ng/mL
Cmax ([3]; human, in vivo, oral, 3 Formulation C5-12 tablets daily, three Formulation C5-12 tablets daily for 14 days, non-fasting, Day 1, N = 14, read-out: Cmax, geometric mean): 651 ng/mL
Tmax [3, 12]: 5.1 h
half-life [3, 12]: 4.6 h
AUC ([3]; human, in vivo, oral, 3 Formulation C5-12 tablets daily, three Formulation C5-12 tablets daily for 14 days, non-fasting, Day 14, N = 14, read-out: AUC24, geometric mean): 10600 ng·h/mL
concentration at 24 h ([3]; human, in vivo, oral, 3 Formulation C5-12 tablets daily, three Formulation C5-12 tablets daily for 14 days, non-fasting, Day 14, N = 14, read-out: C24, geometric mean): 33.7 ng/mL
Cmax ([3]; human, in vivo, oral, 3 Formulation C5-12 tablets daily, three Formulation C5-12 tablets daily for 14 days, non-fasting, Day 14, N = 14, read-out: Cmax, geometric mean): 1640 ng/mL
β ([3]; three Formulation C5-12 tablets daily for 14 days, non-fasting, Day 14, N = 14): 0.151 h⁻¹
Cmax lower than Cmax for the reference regimen [4, 8]: 30%
Cmax ([4]; both sexes, human, blood, oral, 3 film-coated Formulation C5-12 tablets, single dose, non-fasting, Regimen A (C5-12): three film-coated Formulation C5-12 tablets, N = 172, read-out: Cmax, geometric mean): 618 ng/mL
AUC(0-t) ([4]; both sexes, human, in vivo, oral, 3 film-coated Formulation C5-12 tablets, single dose, non-fasting, Regimen A (C5-12): three film-coated Formulation C5-12 tablets, N = 172, read-out: AUCt, geometric mean): 4460 ng·h/mL
AUC(0-inf) ([4]; both sexes, human, in vivo, oral, 3 film-coated Formulation C5-12 tablets, single dose, non-fasting, Regimen A (C5-12): three film-coated Formulation C5-12 tablets, N = 172, read-out: AUC∞, geometric mean): 4490 ng·h/mL
Tmax ([4]; both sexes, human, in vivo, oral, 3 film-coated Formulation C5-12 tablets, single dose, non-fasting, Regimen A (C5-12): three film-coated Formulation C5-12 tablets, N = 172, read-out: Tmax, first value (geometric mean)): 5 h
half-life ([4]; both sexes, human, in vivo, oral, single dose, non-fasting, Regimen B (reference regimen): two Triple Tablets + one Single Tablet morning, one Single Tablet evening, N = 171): 6.02 h
AUC(0-t) ([4]; both sexes, human, in vivo, oral, single dose, non-fasting, Regimen B (reference regimen): two Triple Tablets + one Single Tablet morning, one Single Tablet evening, N = 171, read-out: AUCt, geometric mean): 5470 ng·h/mL
AUC(0-inf) ([4]; both sexes, human, in vivo, oral, single dose, non-fasting, Regimen B (reference regimen): two Triple Tablets + one Single Tablet morning, one Single Tablet evening, N = 171, read-out: AUC∞, geometric mean): 5490 ng·h/mL
Tmax ([4]; both sexes, human, in vivo, oral, single dose, non-fasting, Regimen B (reference regimen): two Triple Tablets + one Single Tablet morning, one Single Tablet evening, N = 171, read-out: Tmax, first value (geometric mean)): 5 h
t1/2 ([4]; single dose, non-fasting, Regimen A (C5-12): three film-coated Formulation C5-12 tablets, N = 172): 6.15 h
Cmax, geometric mean ([4]; single dose, non-fasting, Regimen B (reference regimen): two Triple Tablets + one Single Tablet morning, one Single Tablet evening, N = 171): 935 ng/mL
Solubility [5]: low solubility
half-life [6, 13]: 5.1 h
AUC(0-t) [6, 13]: 4310 ng·h/mL
AUC(0-inf) [6, 13]: 4330 ng·h/mL
Tmax [6, 13]: 5.7 h
half-life [6, 14]: 5.2 h
AUC(0-t) [6, 14]: 4670 ng·h/mL
AUC(0-inf) [6, 14]: 4690 ng·h/mL
Tmax [6, 14]: 4.8 h
concentration at 24 h [6, 13]: 24.5 ng/mL
Cmax [6, 13]: 647 ng/mL
concentration at 24 h [6, 14]: 24.3 ng/mL
Cmax [6, 14]: 900 ng/mL
